Measurements taken from ChEMBL document CHEMBL3217673, “Synthesis of cyanine dyes and investigation of their in vitro antiprotozoal activities” (Medchemcomm, 2012).

Key:
[1] = system: Plasmodium falciparum; assay: Antiprotozoal activity against chloroquine and pyrimethamine-resistant Plasmodium falciparum K1; assay type: functional, organism-based
[2] = Selectivity index, ratio of IC50 for rat L6 cells to IC50 for chloroquine and pyrimethamine-resistant Plasmodium falciparum K1; assay type: toxicity, cell-based; settings: read-out: Ratio IC50
[3] = system: Trypanosoma cruzi; assay: Antiprotozoal activity against Trypanosoma cruzi Tulahuen C2C4; assay type: functional, organism-based
[4] = Selectivity index, ratio of IC50 for rat L6 cells to IC50 for Trypanosoma cruzi Tulahuen C2C4; assay type: toxicity, cell-based; settings: read-out: Ratio IC50
[5] = system: Trypanosoma brucei rhodesiense; assay: Antiprotozoal activity against Trypanosoma brucei rhodesiense STIB900; assay type: functional, organism-based
[6] = Selectivity index, ratio of IC50 for rat L6 cells to IC50 for Trypanosoma brucei rhodesiense STIB900; assay type: toxicity, cell-based; settings: read-out: Ratio IC50
[7] = system: Leishmania donovani; assay: Antiprotozoal activity against Leishmania donovani MHOMET-67/L82; assay type: functional, organism-based
[8] = Selectivity index, ratio of IC50 for rat L6 cells to IC50 for Leishmania donovani MHOMET-67/L82; assay type: toxicity, cell-based; settings: read-out: Ratio IC50
[9] = system: L6; assay: Cytotoxicity against rat L6 cells; assay type: cell-based

SMILES	IC50 [1]	selectivity ratio [2]	IC50 [3]	selectivity ratio [4]	IC50 [5]	selectivity ratio [6]	IC50 [7]	selectivity ratio [8]	IC50 [9]
CN1/C(=C/C=C/c2oc3ccccc3[n+]2C)Oc2ccccc21	38 nM	98.5	106 nM	35.6	707 nM	5.3	211 nM	17.8	3760 nM
Cc1ccc2c(c1)N(C)/C(=C/C=C/c1oc3ccccc3[n+]1C)O2	90 nM	12.6	19 nM	57.7	48 nM	23.8	22 nM	50.5	1140 nM
Cc1ccc2c(c1)N(C)/C(=C/C=C/c1oc3ccc(C)cc3[n+]1C)O2	14 nM	17			54 nM	4.3	5 nM	42.5	230 nM
CN1/C(=C/C=C/c2oc3ccccc3[n+]2C)Oc2ccc(Cl)cc21	925 nM	25.8	7750 nM	3.1	5840 nM	4.1	1460 nM	16.3	23900 nM
Cc1ccc2oc(/C=C/C=C3\Oc4ccc(Cl)cc4N3C)[n+](C)c2c1	468 nM	16.2	1370 nM	5.5	136 nM	55.7	110 nM	68.6	7580 nM
CN1/C(=C/C=C/c2oc3ccc(Cl)cc3[n+]2C)Oc2ccc(Cl)cc21	6030 nM	6	47800 nM	0.8	5200 nM	6.9	5320 nM	6.7	35900 nM
CN1/C(=C/C=C/c2oc3ccccc3[n+]2C)Sc2ccccc21	2 nM	303	11 nM	75.8	185 nM	4.6	90 nM	9.5	849 nM
Cc1ccc2c(c1)N(C)/C(=C/C=C/c1oc3ccccc3[n+]1C)S2	11 nM	13.5			113 nM	1.3	14 nM	10.8	146 nM
Cc1ccc2oc(/C=C/C=C3\Sc4ccccc4N3C)[n+](C)c2c1	16 nM	7.5			496 nM	0.2	40 nM	3	121 nM
Cc1ccc2c(c1)N(C)/C(=C/C=C/c1oc3ccc(C)cc3[n+]1C)S2	8 nM	12			39 nM	2.4	10 nM	9	94 nM
CN1/C(=C/C=C/c2oc3ccc(Cl)cc3[n+]2C)Sc2ccccc21	20 nM	166	284 nM	12	13 nM	266	61 nM	55.4	3400 nM
Cc1ccc2oc(/C=C/C=C3\Sc4ccc(Cl)cc4N3C)[n+](C)c2c1	20 nM	60	109 nM	10.9	62 nM	19.2	89 nM	13.3	1180 nM
CN1/C(=C/C=C/c2oc3ccccc3[n+]2C)Sc2ccc(Cl)cc21	13 nM	178	355 nM	6.4	266 nM	8.6	120 nM	19	2280 nM
CN1/C(=C/C=C/c2oc3ccc(Cl)cc3[n+]2C)Sc2ccc(Cl)cc21	21 nM	141	2860 nM	1	129 nM	23.1	85 nM	35.3	2980 nM
CCN1/C(=C/C=C/c2oc3ccc(C)cc3[n+]2C)Sc2ccc(F)cc21	10 nM	66	27 nM	24	285 nM	2.3	15 nM	44	655 nM
Cc1ccc2oc(/C=C/C=C3\Sc4ccc(F)cc4N3C)[n+](C)c2c1	10 nM	145	8 nM	194	180 nM	8.3	21 nM	72.6	1490 nM
